Among the data in PubChem BioAssay AID687029 (Broad Institute, 2013) are AC50 values, retold here.

The test system of this test is RMG-1 viability, CellTiterGlo ATP luminescence, 96 h. Nature of the test: cytotoxicity in PAX8-dependent RMG-1 cells, dose response, cell-based, cherry-pick (AID 687029).
As usually defined, the AC50 is the concentration at which the activity in the assay is half-maximal. Take `CCCNC(=O)Nc1ccc2c(c1)OC[C@H](C)N(Cc1ccc(-c3ccccn3)cc1)C[C@@H](C)[C@@H](OC)CN(C)C2=O`: the AC50 was less than 260 nM.
Then `CCSc1cc(N2CCOCC2)nc(-c2ccc(Cl)cc2)n1`, with less than 260 nM; and `C[C@@H]1CCCCO[C@@H](CN(C)C(=O)Nc2cccc3ccccc23)[C@H](C)CN([C@H](C)CO)C(=O)c2cc(NS(=O)(=O)c3ccc(F)cc3)ccc2O1`, with less than 260 nM; and `CCC(C)(O)C(=O)OC1C(=O)OC2CC3C(C)=CC(=O)C(O)C3(C)C3C4(O)OCC23C1C(C)C4O` (configuration not stated), with 19700 nM.
`O=C1c2cccc3cc([N+](=O)[O-])cc(c23)C(=O)N1CCN1CCCC1`: the AC50 was less than 260 nM.
Then `COc1cc(/C=N/O)ccc1OCc1ccc(C(=O)O)cc1`, with 12800 nM.
Then `CCOc1ccc(NC(=O)Nc2cc(OCC(F)(F)F)cc(OCC(F)(F)F)c2)cc1`, with 9370 nM; and `C=C(C)c1nc(Oc2ccccc2)nc(Oc2ccccc2)n1`, with less than 260 nM; and `CC1CN(CC(O)COC(c2ccccc2)c2ccccc2)CC(C)O1` (configuration not stated), with less than 260 nM.
Then `OCCCNc1nccc(-c2cc(Nc3cccc(Cl)c3)ncn2)n1`, with less than 260 nM; and `COc1cc(-c2cnc3c(NC=O)cc(-c4ccccc4)cn23)cc(OC)c1OC`, with less than 260 nM; and `COc1ccc(S(=O)(=O)Nc2ccc3c(c2)C(=O)N([C@@H](C)CO)C[C@H](C)[C@@H](CN(C)Cc2ccc(C(F)(F)F)cc2)OCCCC[C@H](C)O3)cc1`, with 372 nM.
For the compound `CCOc1ccc(C(=O)C(CCC(CN(C)C)C(=O)c2ccc(OCC)cc2)CN(C)C)cc1` (configuration not stated), the concentration at half-maximal activity (AC50) was less than 260 nM.
The value for `CCCCN=C[C@]12CCC(O)CC1(O)CCC1[C@@H]2CC[C@]2(C)[C@H](C3C=CC(=O)O3)CCC12O` (some centres not stated) was less than 260 nM.
Then `COc1ccc(N2C(=O)CC(Sc3nnc(-c4ccccc4)o3)C2=O)cc1` (configuration not stated), with less than 260 nM; and `CCOC(=O)c1c(-c2ccc(F)cc2)csc1NC(=O)CN1C(=O)NC2(CCCCC2C)C1=O` (configuration not stated), with 12400 nM; and `FC(F)(F)c1nnc2c(Sc3ccccn3)nc3ccccc3n12`, with 14200 nM.
Then `C[C@]12CC[C@H]3[C@@H](CC[C@]4(O)C[C@@H](O)CC[C@]34C=O)[C@@]1(O)CC[C@@H]2C1=CC(=O)OC1`, with less than 260 nM; and `C[C@@H]1CN([C@H](C)CO)C(=O)c2cc(NS(=O)(=O)c3ccc(Cl)cc3)ccc2O[C@@H](C)CCCCO[C@@H]1CN(C)Cc1ccccc1`, with less than 260 nM.
`C[C@H](CO)N1C[C@H](C)[C@H](CN(C)Cc2ccc(C(F)(F)F)cc2)OCCCC[C@H](C)Oc2ccc(NS(=O)(=O)c3ccccc3)cc2C1=O`: the AC50 was 927 nM.
In the case of `CCN(CC)S(=O)(=O)c1cc(NC(=O)Cn2ncc(Cl)c(Cl)c2=O)ccc1C`, the AC50 is less than 260 nM.
Consider `O=C1CN(C(=O)Cn2ncc(Cl)c(Cl)c2=O)c2ccccc2N1`, for which the AC50 is less than 260 nM.
The value for `Cc1ccc(C(=O)N/C(=C\c2ccc(-c3ccc(Br)cc3)o2)C(=O)NCCCN(C)C)cc1` was 12500 nM; that for `COc1cccc(S(=O)(=O)NCC(=O)Nc2ccc(C(C)(C)C)cc2)c1` was less than 260 nM; that for `O=C(NCc1ccco1)C1CCCN(S(=O)(=O)c2ccc(Br)cc2)C1` (configuration not stated) was less than 260 nM.
The value for `O=C(Nc1ccccc1)NN(C(=O)CCl)c1ccccc1` was 12400 nM; that for `COc1ccc(NC(=O)c2c(Nc3ccccc3)sc(C(=O)c3ccc(F)cc3)c2N)cc1` was less than 1000 nM; that for `CCCn1c(C)cc(C(=O)CN2C(=O)c3ccccc3S2(=O)=O)c1C` was less than 260 nM.
Then `Cc1ccccc1CNC(=O)C1CCCN(c2nnc(C)c3c(C)n(-c4ccccc4)nc23)C1` (configuration not stated), with less than 260 nM; and `Cc1nnc(N/N=C/c2cc(C)n(-c3ccc(F)cc3)c2C)n1N`, with 8360 nM.
As to `Cc1ccc(NC(=O)Cn2ncc(Cl)c(Cl)c2=O)cc1S(=O)(=O)N1CCCCC1`, the AC50 is less than 260 nM.
In the case of `CCOC(=O)Nc1ccc2c(c1)N(C(=O)CCN(CC)CC)c1ccccc1S2=O` (configuration not stated), the AC50 was less than 260 nM.
In the case of `Cc1cc(C2=NNC(=NC3CC3)SC2)c(C)n1-c1ccccc1F`, the AC50 was less than 260 nM.
The value for `COc1cc(OC)c2c(-c3cccc(-c4ccc(OC)c(F)c4)c3)cc(=O)oc2c1` was 11400 nM; that for `Cn1ncc2c(O/N=C(\N)c3ccc(C(F)(F)F)cc3)ncnc21` was less than 260 nM; that for `O=c1[nH]c2ccccc2n1C1CCN(C(c2cccs2)c2nnnn2-c2ccc3c(c2)OCCO3)CC1` (configuration not stated) was less than 260 nM.
As for `COc1ccc(C(=O)NC(=S)NNC(=O)c2c(-c3ccccc3)noc2C)cc1`, the AC50 was less than 260 nM.
Then `N#Cc1ccc(-c2ccc(C3[C@@H]4CN(C(=O)C5CC5)C[C@H]3N4)cc2)cc1` (some centres not stated), with less than 260 nM.
Take `C[C@@H]1CCCCO[C@@H](CN(C)S(=O)(=O)c2ccc(Cl)cc2)[C@H](C)CN([C@H](C)CO)C(=O)c2cc(NS(=O)(=O)c3ccc(F)cc3)ccc2O1`: the AC50 was 1720 nM.
On to `Cc1nc2sc(C(c3ccco3)N3CCN(C(c4ccccc4)c4ccccc4)CC3)c(O)n2n1` (configuration not stated), for which the half-maximal activity concentration (AC50) is less than 260 nM.
The value for `COc1cc(OC)cc(C(=O)NCC(=O)OCC(=O)c2cc(C)n(Cc3ccco3)c2C)c1` was less than 260 nM.
Take `Cc1cc(C(C)(C)C)cc(C)c1Cn1c2[n+](c3ccc(C(F)(F)F)cc31)CCCCC2`: the AC50 was less than 260 nM.
Regarding `C[C@H]1CCCCO[C@H](CN(C)Cc2ccc(C(F)(F)F)cc2)[C@@H](C)CN([C@@H](C)CO)C(=O)c2cc(NS(=O)(=O)c3ccc(Cl)cc3)ccc2O1`, the AC50 is less than 260 nM.
Then `Cc1cc(CN(C)C(=O)c2cc(COc3ccc4ncccc4c3)on2)on1`, with less than 260 nM; and `COc1ccc(Cn2cc3c(-c4ccc(F)cc4)nnc-3c3cc(OC)c(OC)cc32)cc1`, with 21300 nM.
The value for `CCOC(=O)c1c(C)[nH]c2c1-c1ccccc1C(=O)C2=O` was less than 260 nM; that for `C=C(C(=O)c1ccccc1)C(C(=C)C(=O)c1ccccc1)c1ccc(OC)cc1` was less than 260 nM.
The value for `C[C@@H]1CN([C@H](C)CO)S(=O)(=O)c2ccc(C#CC3CCCC3)cc2O[C@@H]1CN(C)C(=O)Cc1ccncc1` was less than 260 nM; that for `Cc1cc(C)c2c(N)c(C(=O)Nc3ncc(C)s3)sc2n1` was 1010 nM.
`O=C(Nc1cccc(Cl)c1)Nc1nnc(-c2ccncc2)s1`: the AC50 was less than 260 nM.
`COc1ccc2c(COC(=O)CNC(=O)C34CC5CC(CC(C5)C3)C4)cc(=O)oc2c1`: the AC50 is less than 260 nM.
As to `O=C(C(=O)N(Cc1ccccc1)Cc1ccccc1)c1c(-c2ccccc2)[nH]c2ccccc12`, the AC50 is less than 260 nM.
Then `C[C@H](CO)N1C[C@H](C)[C@@H](CN(C)S(=O)(=O)c2ccc(Cl)cc2)OCCCC[C@H](C)Oc2ccc(NS(=O)(=O)c3ccc(Cl)cc3)cc2C1=O`, with less than 260 nM; and `COc1cccc(CC(=O)Nc2nc3c(s2)C(=O)CC(C)(C)C3)c1`, with less than 260 nM.
The value for `COc1ccc(F)cc1-c1cc(NC=O)c2ncc(-c3cc(OC)c(OC)c(OC)c3)n2c1` was less than 260 nM; that for `Cn1c(CCN2CCCC2)nc2cc(NS(=O)(=O)c3ccccc3)ccc21` was less than 260 nM; that for `O=C(NC1CCCCC1)C(c1cccnc1)N(C(=O)CCl)c1ccc(F)cc1` (configuration not stated) was 9950 nM.
The value for `C[C@H](O)[C@@H]1CN2CCc3c([nH]c4ccc(-c5ccc6c(c5)OCO6)cc34)[C@@H]2C[C@@H]1N(C)C(=O)NC1CCCCC1` was less than 260 nM; that for `CC1CC(C)(O)CC(C(O)CC2CC(=O)NC(=O)C2)C1=O` (configuration not stated) was less than 260 nM.
As to `CCC(=O)NC(c1ccc(C)cc1)c1ccc2cccnc2c1O` (configuration not stated), the AC50 is less than 260 nM.
Then `Cn1nnnc1Sc1ncnc2scc(-c3cccc(S(C)(=O)=O)c3)c12`, with 10200 nM.
For `Cc1cccc(N(Cc2cc(=O)[nH]c3ccccc23)C(=O)CCl)c1`, the AC50 was less than 260 nM.
In the case of `C[C@@H]1CCCCO[C@H](CN(C)C(=O)C2CCCCC2)[C@@H](C)CN([C@@H](C)CO)C(=O)c2cc(NC(=O)Nc3ccc(F)cc3)ccc2O1`, the AC50 was less than 260 nM.
The value for `COc1cccc(-c2ccc([C@H]3[C@@H](CO)N(C(=O)Cc4ccccc4)[C@H]3C#N)cc2)c1` was less than 260 nM; that for `C=C(C)c1cccc(C(C)(C)NC(=O)N2CCN(c3ccccc3OC)CC2)c1` was less than 260 nM.
The value for `C#CCN(C[C@@H]1[C@@H](OC(=O)NCc2ccccc2F)[C@@H](OC(=O)NCc2ccccc2F)Cn2c(=O)ccc(=O)n21)S(=O)(=O)c1ccc(C)cc1` was less than 260 nM; that for `C=C1C(=O)C2=CC1CCC(=O)C1(C)CCC(OC(C)=O)C(C)(C)C1CC2O` (configuration not stated) was less than 260 nM.
The value for `O=C(Nc1ccc(N2CCN(C(=O)c3ccccc3)CC2)cc1)c1ccc([N+](=O)[O-])o1` was less than 260 nM; that for `COCCn1c(C)cc(C2=NNC(=NC3CC3)SC2)c1C` was less than 260 nM.
In the case of `O=C(CSc1ncccc1-c1nc2ccccc2[nH]1)N1CCc2ccccc21`, the AC50 was less than 260 nM.
As for `COc1ccccc1C(=O)Nc1nc2ccccc2[nH]1`, the half-maximal activity concentration (AC50) is 12300 nM.
Then `C[C@@H]1O[C@@H](O[C@@H]2C=C3CC[C@@H]4C(CC[C@]5(C)[C@@H](c6ccc(=O)oc6)CC[C@]45O)[C@@]3(C)CC2)[C@H](O)[C@H](O)[C@H]1O` (some centres not stated), with less than 260 nM.
The value for `CCOc1ccc2nc(N/C(N)=N/C(=S)Nc3ccc(C)c(C)c3)nc(C)c2c1` was less than 260 nM.
Then `COc1ccc(NC(=O)Nc2ccc3c(c2)C(=O)N([C@@H](C)CO)C[C@@H](C)[C@@H](CN(C)CC2CCCCC2)OCCCC[C@@H](C)O3)cc1`, with less than 260 nM; and `CC(C)(C)[C@H](N)C(=O)N[C@H]1CCC2C3CC=C4C[C@@H](O)CC[C@]4(C)C3CC[C@@]21C` (some centres not stated), with less than 260 nM; and `Oc1cccc2cc(Nc3ccccc3)cnc12`, with less than 260 nM.
For `COc1cc(C=C2C(=O)C=CC2=O)ccc1O`, the concentration at half-maximal activity (AC50) was less than 260 nM.
The value for `C(=Cc1cnc2ccccc2n1)c1ccc2c(c1)OCO2` was 12900 nM; that for `CCCC(=O)NC(c1ccc(C(C)C)cc1)c1ccc2cccnc2c1O` (configuration not stated) was less than 260 nM.
Then `CC(=O)[C@@]1(O)Cc2c(O)c3c(c(O)c2[C@H](O[C@H]2C[C@H](N)[C@H](O)[C@H](C)O2)C1)C(=O)c1ccccc1C3=O`, with 9480 nM; and `COc1ccc(-n2nc3c(N4CCC(C(=O)NCc5cccc(C)c5)CC4)nnc(C)c3c2C)cc1`, with less than 260 nM; and `COc1cccc(N2CCN(C(=O)c3ccc(CS(=O)c4ccccc4Cl)o3)CC2)c1` (configuration not stated), with less than 260 nM.
